In data set [1] the target is T1, Solute carrier family 22 member 2 (Homo sapiens, UniProt O15244).
T1 sequence (O15244 whole entry): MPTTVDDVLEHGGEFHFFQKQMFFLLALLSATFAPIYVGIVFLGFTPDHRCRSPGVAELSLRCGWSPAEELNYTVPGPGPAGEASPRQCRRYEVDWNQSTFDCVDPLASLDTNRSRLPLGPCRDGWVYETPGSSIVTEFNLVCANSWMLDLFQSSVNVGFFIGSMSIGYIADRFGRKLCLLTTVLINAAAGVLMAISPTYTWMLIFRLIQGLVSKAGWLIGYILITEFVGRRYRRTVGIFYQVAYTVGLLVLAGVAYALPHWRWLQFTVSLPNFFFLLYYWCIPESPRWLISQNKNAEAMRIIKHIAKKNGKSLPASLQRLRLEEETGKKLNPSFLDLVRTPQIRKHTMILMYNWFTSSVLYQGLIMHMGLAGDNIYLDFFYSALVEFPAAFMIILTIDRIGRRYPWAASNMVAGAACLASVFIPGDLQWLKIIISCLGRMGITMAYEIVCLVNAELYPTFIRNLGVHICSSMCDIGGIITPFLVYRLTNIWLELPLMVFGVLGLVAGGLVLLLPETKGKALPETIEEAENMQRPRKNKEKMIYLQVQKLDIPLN
The data set can be described thus: TP_TRANSPORTER: inhibition of Choline uptake (Choline: 10 uM, NMN: 5000 uM) in Xenopus laevis oocytes. The data set is classed as functional, cell-based. To be noted: oocyte.

In data set [2] the target is T2, Solute carrier family 22 member 2 (Rattus norvegicus, UniProt Q9R0W2).
T2 sequence (Q9R0W2 whole entry): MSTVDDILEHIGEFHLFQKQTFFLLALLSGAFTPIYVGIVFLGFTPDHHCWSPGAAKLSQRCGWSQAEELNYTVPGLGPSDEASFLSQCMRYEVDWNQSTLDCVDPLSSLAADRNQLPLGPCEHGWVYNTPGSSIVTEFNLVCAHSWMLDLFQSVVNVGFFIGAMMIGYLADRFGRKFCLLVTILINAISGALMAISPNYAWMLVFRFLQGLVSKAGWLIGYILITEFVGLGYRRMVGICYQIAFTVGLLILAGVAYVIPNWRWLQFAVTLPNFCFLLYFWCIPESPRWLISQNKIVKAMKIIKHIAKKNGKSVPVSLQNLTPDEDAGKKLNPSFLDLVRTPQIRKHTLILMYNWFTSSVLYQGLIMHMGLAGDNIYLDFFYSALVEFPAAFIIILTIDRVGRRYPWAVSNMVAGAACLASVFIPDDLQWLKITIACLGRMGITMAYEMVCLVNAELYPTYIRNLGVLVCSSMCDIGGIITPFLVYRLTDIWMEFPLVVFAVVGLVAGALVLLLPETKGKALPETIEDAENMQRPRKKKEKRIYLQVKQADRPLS
As to the kind of experiment: (§1) TP_TRANSPORTER: inhibition of Choline uptake (Choline: 10 uM, Quinine: 200 uM) in Xenopus laevis oocytes. The data set is classed as functional, cell-based. The conditions noted are these: oocyte.

Data set [3] deals with T3, Solute carrier family 22 member 1 (Rattus norvegicus, UniProt Q63089).
T3 sequence (Q63089 whole entry): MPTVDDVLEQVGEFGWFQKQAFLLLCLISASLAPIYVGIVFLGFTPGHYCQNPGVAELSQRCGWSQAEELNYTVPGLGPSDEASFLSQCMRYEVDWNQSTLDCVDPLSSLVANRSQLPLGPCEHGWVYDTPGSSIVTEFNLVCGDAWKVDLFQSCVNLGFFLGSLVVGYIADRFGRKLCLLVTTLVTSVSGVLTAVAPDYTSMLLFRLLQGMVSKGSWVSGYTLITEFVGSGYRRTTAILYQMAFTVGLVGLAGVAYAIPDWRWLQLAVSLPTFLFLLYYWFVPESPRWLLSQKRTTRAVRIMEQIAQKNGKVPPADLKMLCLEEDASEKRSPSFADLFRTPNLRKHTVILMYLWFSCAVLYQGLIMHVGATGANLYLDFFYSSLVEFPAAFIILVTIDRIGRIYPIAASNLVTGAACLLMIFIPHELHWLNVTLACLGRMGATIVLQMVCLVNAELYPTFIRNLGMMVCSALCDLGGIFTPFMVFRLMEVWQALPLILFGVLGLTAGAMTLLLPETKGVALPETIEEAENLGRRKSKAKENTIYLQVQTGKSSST
The data set is described as §1. Type of data set: functional, cell-based. The conditions noted are these: oocyte.

Data set [4] deals with T1, Solute carrier family 22 member 2. As to the kind of experiment: TP_TRANSPORTER: inhibition of Choline uptake (Choline: 10 uM, TPeA: 200 uM) in Xenopus laevis oocytes. Type of data set: functional, cell-based. The conditions noted are these: oocyte.
Substrate in data set [5]: C[N+](C)(C)CCO
The data set can be described thus: cells, lysate or membranes named.

In the case of `CNC(=O)c1cccnc1` [NICOTINYL METHYLAMIDE], the Activity entry in data set [1] is “inhibitor [+]”.
With `C=C[C@H]1C[N@@]2CC[C@H]1C[C@H]2[C@H](O)c1ccnc2ccc(OC)cc12` [QUININE], the Activity result in data set [2] and in data set [3] was “inhibitor [+]” throughout.
`CCCCC[N+](CCCCC)(CCCCC)CCCCC` [TETRAPENTYLAMMONIUM]: the Activity entry in data set [4] is “inhibitor [+]”.

B1: Solute carrier family 22 member 2 (Rattus norvegicus) (protein)
chain: T2 sequence (Q9R0W2 whole entry)
As for B1, the Km (in general, the substrate concentration at which the rate is half of its maximum) in data set [5] amounted to 441 µM.

B2: Solute carrier family 22 member 2 (Homo sapiens) (protein)
chain: T1 sequence (O15244 whole entry)
Consider B2, for which the Michaelis-Menten constant (Km) in data set [5] is 102 µM.

B3: Solute carrier family 22 member 1 (Rattus norvegicus) (protein)
chain: T3 sequence (Q63089 whole entry)
On to B3, for which the Km in data set [5] is 346 µM.
